The nature of the series: gradient 5% acetonitrile 3 min, to 50% in 2 min, to 85% in 15 min, held 3 min, 100 µL/min. Conditions: column: Zorbax Extend-C18 2.1 x 50 mm; eluents: water / acetonitrile, 0.1% formic acid. The essentials: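 In both positive and negative ionization mode, a quadrupole time-of-flight mass spectrometer coupled to HPLC analyzed pure standards run in mixtures of ~100 molecules. The Zorbax Extend-C18 column (2.1 × 50 mm, 1.8 μm) was operated at 100 μL/min with water and acetonitrile, each containing 0.1% formic acid. The dead volume was 40 μL and the dwell volume 900 μL. Retention time came from adduct peaks that were computationally picked and individually inspected by hand.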
For `Cc1nc2ccn(Cc3cccnc3)c(=O)c2cc1C(=O)NCc1ccco1`, the RP-LC retention time was found to be 575 s. For the compound `Cc1ccc(CNC(=O)C2(C)CCCN(C(=O)Nc3ccc(Br)c(C)c3)C2)cc1` (stereo unspecified), the RP-LC retention time was 1110 s. Then `Fc1cccc(N2CC3(CCN(Cc4ccncc4F)CC3)C2c2ccccc2)c1` (stereo unspecified), with 650 s; and `CCCn1c(=O)c2sc(N3CCCC3)nc2n(CC(=O)NCCC2=CCCCC2)c1=O`, with 997 s. For `CCc1nc(-c2csc(S(=O)(=O)N3CCCC(C(=O)Nc4ccc(Cl)cc4F)C3)c2)no1` (stereo unspecified) the value was 1150 s. Then `O=C(Nc1ccc(OCc2nnc(-c3ccccc3)o2)cc1)c1cncc(Br)c1`, with 883 s; and `CCn1nc(CNC(=O)CSc2ccncc2)c2ccccc21`, with 598 s; and `COCCCNC(=O)C1CCN(c2cncnc2N2CCOCC2)CC1`, with 550 s. Take `CCOC(=O)c1[nH]c2ccc(F)cc2c1NC(=O)CN(CC)CC`: the RP-LC retention time came out at 605 s. For `CN(C)S(=O)(=O)c1ccc(NC(=O)N2CCCC(C(=O)Nc3ccc(F)cc3)C2)s1` (stereo unspecified) the value was 830 s; for `Cc1ccccc1CNC(=O)C1(C)Oc2cccnc2N(C)C1=O` (stereo unspecified), 786 s. Then `CN(C(=O)CN1C(=O)NC2(CCCCC2)C1=O)c1ccccc1`, with 740 s. For `COCCCn1c(C)c(C)c(S(=O)(=O)c2ccccc2)c1NC(=O)C1CCCO1` (stereo unspecified), the RP-LC retention time is 824 s. For `CCN1CCCn2cc(S(=O)(=O)NCc3cccc(C)c3)cc2C1=O` the value was 780 s.

Consider `Cc1ccc(S(=O)(=O)N2CCOCC2)cc1[N+](=O)[O-]`, for which the RP-LC retention time worked out at 751 s.

`CCc1cccc(NC(=O)N2CCC(n3cnnc3C)CC2)c1` returned an RP-LC retention time of 650 s. Then `COc1ccc(Cl)cc1NC(=O)NC1CCN(c2ccccc2)C1=O` (stereo unspecified), with 873 s; and `Cc1ccc(NC(=O)c2sc(C)nc2C)c(Cl)c1`, with 907 s; and `CCn1cc(-c2ccc(OC)cc2)cc1C(=O)O`, with 825 s. With `CN(C)CCCn1c2c3ccccc3ccc2c2oc(=O)c3ccccc3c21`, the RP-LC retention time stood at 802 s.

`CCCc1nc(-c2c(C)cc(C)nc2NC(=O)c2ccccc2Cl)no1` yielded an RP-LC retention time of 934 s. For `CC(=O)NCc1nc(-c2ccccc2Cl)no1` the value was 673 s; for `O=C(Nc1cccc2nsnc12)C1CCN(c2ccc(-c3cccs3)nn2)CC1`, 668 s; for `O=C(NCc1cccs1)c1cc2n(n1)CCCC2`, 753 s. Then `O=S(=O)(c1ccccc1)N1CCC(c2noc(-c3cccc(F)c3)n2)CC1`, with 1110 s; and `COC(=O)CNC(=O)NC(Cc1ccccc1)Cc1ccc2c(c1)OCO2` (stereo unspecified), with 810 s; and `Cc1sc2ccn(CC(C)C)c(=O)c2c1C(=O)NCc1ccc(N(C)C)cc1`, with 652 s. For `CC1CCCCN1S(=O)(=O)c1ccc(Cl)c(C(F)(F)F)c1` (stereo unspecified) the value was 1120 s; for `Cc1ccc(CC(=O)NC2CCN(c3ccc(F)cc3)C2=O)cc1` (stereo unspecified), 828 s; for `Cc1cc(C)cc(Oc2nccn3c(=O)n(CC(=O)Nc4ccc(F)cc4)nc23)c1`, 905 s. As for `CN1C(=O)CCC2(CNC(=O)Nc3ccccc3F)CCCC=C12` (stereo unspecified), the RP-LC retention time worked out at 797 s. In turn, `COc1cccc(-c2nnc(Cc3nc(-c4ccccc4F)no3)o2)c1` yielded an RP-LC retention time of 1020 s.

Compound `CCOc1ccc(-n2ccn3cc(-c4ccc(C)cc4)nc3c2=O)cc1` yielded an RP-LC retention time of 879 s. For `Cn1cc(-c2cc3n(n2)CCC(=O)N3CC(=O)NCCCN2CCCCCC2)c2ccccc21` the value was 621 s; for `Cc1ccc(CNC(=O)c2ccc3c(c2)ncn3CCN2CCCC2)cc1C`, 595 s. `COc1ccc(-c2noc(-c3ccc(NCc4ccc(C)o4)nc3)n2)cc1` came in with an RP-LC retention time of 1150 s. For `COC1CN(C2CCN(C(=O)CC(C)C)CC2)C12CCOCC2` (stereo unspecified) the value was 579 s; for `C=CCN(Cc1nc(-c2cccc(C)c2)no1)C(=O)Nc1ccccc1C`, 1080 s.

On to `Cc1ccc(Nc2nc(C)cc(N3CCN(C(=O)C4CCCCC4)CC3)n2)cc1`, for which the RP-LC retention time worked out at 734 s. In turn, `Cc1cn2c(S(=O)(=O)NC3CCCCC3)c(C(C)C)nc2s1` gave an RP-LC retention time of 999 s.

Compound `O=C(Cn1nc(N2CCOCC2)c2ccccc2c1=O)Nc1cccc(C(F)(F)F)c1` had an RP-LC retention time of 894 s.

On to `O=C(Nc1ccc(Cn2cncn2)cc1)c1ccoc1`, for which the RP-LC retention time was found to be 621 s. Then `CNC(=O)c1sc2nc(-c3cccc(F)c3)c(NCCOC)n2c1C`, with 734 s; and `Cc1nc(CC(=O)NCc2ccccc2C(F)(F)F)sc1C(=O)NCC(C)C`, with 847 s; and `O=C(NC1CC1)[C@@H]1OCCN(C2CC2)[C@H]1c1ccccc1`, with 572 s. For `Cc1sc(C)c(S(=O)(=O)N2CC=C(c3ccccc3)CC2)c1-c1cc(C(F)(F)F)on1` the value was 1300 s.

With `c1ccc(-c2nnc(-c3ccc(-n4ccnc4)nc3)o2)cc1`, the RP-LC retention time was found to be 639 s. For `Cc1ccc(CN2CCN(C3CCN(S(=O)(=O)c4ccc(C)c(Cl)c4)CC3)C(=O)C2=O)cc1` the value was 990 s; for `CCCNC(=O)CCc1cc2cc(OC)ccc2[nH]c1=O`, 634 s. For `CCN1CCN(c2ccc(NC(=O)c3ccc(Cl)s3)cn2)C1=O`, the RP-LC retention time turned out to be 742 s. Then `CCn1c(=O)c(N2CCN(C(=O)Nc3ccc(F)cc3F)CC2)nc2ccccc21`, with 895 s.

As to `CC(C)(C)n1nnnc1C1CC2(CCOCC2)C(=O)N1Cc1cccc(F)c1` (stereo unspecified), the RP-LC retention time came to 784 s. For `COc1cc(C(=O)N(Cc2ccc(N(C)C)cc2)CC2CCCO2)cc(OC)c1OC` (stereo unspecified) the value was 659 s; for `Cc1ccc(Nc2nc(N)nc(CN3CCN(c4ccccn4)CC3)n2)cc1`, 590 s; for `O=C(NCc1ccc(F)c(Cl)c1)C1CCCN(c2nccnc2Sc2ccccc2)C1` (stereo unspecified), 1100 s. Compound `Cc1oc(-c2[nH]ncc2C(=O)N(C)C)cc1S(=O)(=O)Nc1ccc(Cl)cc1F` showed an RP-LC retention time of 714 s. For `COc1cccc(-c2nc3sc(C(=O)N(C)C)c(C)n3c2NC(C)(C)C)c1` the value was 773 s; for `COc1ccc(-c2cc3c(=O)n(Cc4noc(CN5CCCC5)n4)ccn3n2)cc1`, 646 s; for `O=C(Cn1cccc1-c1nc(-c2ccc(Cl)cc2)cs1)N1CCN(c2ncccn2)CC1`, 1100 s. Then `COc1ccccc1-c1cc(C(=O)N2CCN(c3cc(=O)n(C(C)C)c(=O)n3C(C)C)CC2)[nH]n1`, with 861 s; and `CCCNC(=O)C1CCCN(c2nc3ncn(CC(=O)Nc4ccc(C(C)C)cc4)c(=O)c3s2)C1` (stereo unspecified), with 801 s.

The values above are taken from the METLIN SMRT retention time set (Domingo-Almenara et al. 2019).
